# Results published in PubChem BioAssay (NCI).
#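 Assay format: 96-well plates, 48-hour exposure. TGI marks complete inhibition of growth.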
# Tests used:
# Experiment in all cases: DTP human tumour cell line panel, 48 h
# [1] = test system: RPMI-8226 leukemia
# [2] = test system: MCF7 breast
# [3] = test system: M14 melanoma
# [4] = test system: SK-MEL-2 melanoma
# [5] = test system: 786-0 renal
# [6] = test system: HL-60(TB) leukemia
# [7] = test system: HS 578T breast
# [8] = test system: LOX IMVI melanoma
# [9] = test system: HCC-2998 colon
# [10] = test system: T-47D breast
# [11] = test system: SF-295 CNS
# [12] = test system: SK-MEL-28 melanoma
# [13] = test system: OVCAR-8 ovarian
# [14] = test system: SNB-75 CNS
# [15] = test system: NCI-H226 lung
# [16] = test system: NCI/ADR-RES ovarian
# [17] = test system: OVCAR-5 ovarian
# [18] = test system: A498 renal
# [19] = test system: IGROV1 ovarian
# [20] = test system: A549 NSCLC
# [21] = test system: UACC-62 melanoma
# [22] = test system: SK-OV-3 ovarian
# [23] = test system: U251 CNS
# [24] = test system: SW-620 colon
# [25] = test system: OVCAR-3 ovarian
# [26] = test system: SF-539 CNS
# [27] = test system: MDA-MB-435
# [28] = test system: HOP-92 NSCLC
# [29] = test system: DU-145 prostate
# [30] = test system: KM12 colon
# [31] = test system: SF-268 CNS
# [32] = test system: MDA-MB-231 breast
# [33] = test system: SNB-19 CNS
# [34] = test system: ACHN renal
# [35] = test system: SK-MEL-5 melanoma
# [36] = test system: MOLT-4 leukemia
# [37] = test system: NCI-H23 lung
# [38] = test system: CAKI-1 renal
# [39] = test system: EKVX NSCLC
# [40] = test system: SN12C renal
# [41] = test system: TK-10 renal
# [42] = test system: MDA-N
# [43] = test system: CCRF-CEM leukemia
# [44] = test system: K-562 leukemia
# [45] = test system: UO-31 renal
# [46] = test system: COLO 205 colon
# [47] = test system: UACC-257 melanoma
# [48] = test system: HCT-15 colon
# [49] = test system: NCI-H522 lung
# [50] = test system: MALME-3M melanoma
# [51] = test system: PC-3 prostate
# [52] = test system: HCT-116 colon
# [53] = test system: HT29 colon
# [54] = test system: OVCAR-4 ovarian
# [55] = test system: NCI-H460 lung
# [56] = test system: BT-549 breast
# [57] = test system: HOP-62 NSCLC
# [58] = test system: RXF 393 renal
# [59] = test system: SR leukemia
smiles,measurement,setting,value
C[C@@H](C1CC[C@H]2[C@@H]3[C@@H]4O[C@@H]4[C@@]4(O)CC=CC(=O)[C@]4(C)[C@H]3C[C@H](O)[C@]12C)[C@H]1C[C@]2(C)O[C@]2(C)C(=O)O1 (stereo partly drawn),TGI,[1],> 100 µM
same,TGI,[2],> 100 µM
same,TGI,[3],> 100 µM
same,TGI,[4],> 100 µM
same,TGI,[5],> 100 µM
same,TGI,[6],> 100 µM
same,TGI,[7],> 100 µM
same,TGI,[8],> 100 µM
same,TGI,[9],> 100 µM
same,TGI,[10],> 100 µM
same,TGI,[11],> 100 µM
same,TGI,[12],> 100 µM
same,TGI,[13],> 100 µM
same,TGI,[14],> 100 µM
same,TGI,[15],> 100 µM
same,TGI,[16],> 100 µM
same,TGI,[17],> 100 µM
same,TGI,[18],> 100 µM
same,TGI,[19],> 100 µM
same,TGI,[20],> 100 µM
same,TGI,[21],> 100 µM
same,TGI,[22],> 100 µM
same,TGI,[23],> 100 µM
same,TGI,[24],> 100 µM
same,TGI,[25],> 100 µM
same,TGI,[26],> 100 µM
same,TGI,[27],> 100 µM
same,TGI,[28],> 100 µM
same,TGI,[29],> 100 µM
same,TGI,[30],> 100 µM
same,TGI,[31],> 100 µM
same,TGI,[32],> 100 µM
same,TGI,[33],> 100 µM
same,TGI,[34],> 100 µM
same,TGI,[35],> 100 µM
same,TGI,[36],> 100 µM
same,TGI,[37],> 100 µM
same,TGI,[38],> 100 µM
same,TGI,[39],> 100 µM
same,TGI,[40],> 100 µM
same,TGI,[41],> 100 µM
same,TGI,[42],> 100 µM
same,TGI,[43],> 100 µM
same,TGI,[44],> 100 µM
same,TGI,[45],> 100 µM
same,TGI,[46],> 100 µM
same,TGI,[47],> 100 µM
same,TGI,[48],> 100 µM
same,TGI,[49],> 100 µM
same,TGI,[50],> 100 µM
same,TGI,[51],> 100 µM
same,TGI,[52],> 100 µM
same,TGI,[53],> 100 µM
same,TGI,[54],> 100 µM
same,TGI,[55],> 100 µM
OC1(c2ccccc2)CC2CCC(C1)N2CCCC(O)(c1ccccc1)c1ccccc1 (stereo not drawn),TGI,[1],6.4 µM
same,TGI,[2],33.3 µM
same,TGI,[3],30.8 µM
same,TGI,[4],37.6 µM
same,TGI,[5],25.6 µM
same,TGI,[6],> 100 µM
same,TGI,[7],18.7 µM
same,TGI,[8],22.4 µM
same,TGI,[9],6.25 µM
same,TGI,[10],50.3 µM
same,TGI,[11],10.6 µM
same,TGI,[12],32.9 µM
same,TGI,[13],36.1 µM
same,TGI,[14],23.8 µM
same,TGI,[15],29 µM
same,TGI,[16],39.1 µM
same,TGI,[17],44.4 µM
same,TGI,[18],29.1 µM
same,TGI,[19],29.9 µM
same,TGI,[20],34.4 µM
same,TGI,[21],28.5 µM
same,TGI,[22],28.1 µM
same,TGI,[23],28.7 µM
same,TGI,[24],22.4 µM
same,TGI,[56],26.3 µM
same,TGI,[25],30 µM
same,TGI,[26],16.8 µM
same,TGI,[27],24.8 µM
same,TGI,[28],18.9 µM
same,TGI,[29],56.8 µM
same,TGI,[30],30.3 µM
same,TGI,[31],30.1 µM
same,TGI,[57],29 µM
same,TGI,[32],43.9 µM
same,TGI,[33],42.9 µM
same,TGI,[34],31.5 µM
same,TGI,[35],10.2 µM
same,TGI,[36],36.3 µM
same,TGI,[37],25.7 µM
same,TGI,[38],27.1 µM
same,TGI,[39],38.3 µM
same,TGI,[40],39.1 µM
same,TGI,[41],25.8 µM
same,TGI,[43],30.8 µM
same,TGI,[44],37.8 µM
same,TGI,[45],20.2 µM
same,TGI,[46],30.8 µM
same,TGI,[47],4 µM
same,TGI,[58],24.3 µM
same,TGI,[59],> 100 µM
same,TGI,[48],27.3 µM
same,TGI,[49],27.9 µM
same,TGI,[50],39.1 µM
same,TGI,[51],16.2 µM
same,TGI,[52],36.1 µM
same,TGI,[53],9.64 µM
same,TGI,[54],> 100 µM
same,TGI,[55],5.13 µM
CCOC(=O)Cc1c(C)c2ccc(OC(C)=O)c(OC(C)=O)c2oc1=O,TGI,[1],> 100 µM
same,TGI,[2],77.1 µM
same,TGI,[3],> 100 µM
same,TGI,[4],> 100 µM
same,TGI,[5],> 100 µM
same,TGI,[7],> 100 µM
same,TGI,[8],73.9 µM
same,TGI,[11],> 100 µM
same,TGI,[12],> 100 µM
same,TGI,[13],57.3 µM
same,TGI,[14],88.6 µM
same,TGI,[15],94.3 µM
same,TGI,[16],58.4 µM
same,TGI,[17],> 100 µM
same,TGI,[18],> 100 µM
same,TGI,[19],44.3 µM
same,TGI,[20],> 100 µM
same,TGI,[21],90 µM
same,TGI,[22],> 100 µM
same,TGI,[23],> 100 µM
same,TGI,[24],> 100 µM
same,TGI,[25],> 100 µM
same,TGI,[27],> 100 µM
same,TGI,[28],71.3 µM
same,TGI,[29],> 100 µM
same,TGI,[30],> 100 µM
same,TGI,[31],96.1 µM
same,TGI,[57],> 100 µM
same,TGI,[32],> 100 µM
same,TGI,[33],> 100 µM
same,TGI,[34],> 100 µM
same,TGI,[35],> 100 µM
same,TGI,[36],> 100 µM
same,TGI,[37],71.7 µM
same,TGI,[39],> 100 µM
same,TGI,[40],> 100 µM
same,TGI,[41],65.2 µM
same,TGI,[42],> 100 µM
same,TGI,[43],28.5 µM
same,TGI,[44],71.9 µM
same,TGI,[45],55.8 µM
same,TGI,[46],> 100 µM
same,TGI,[47],51.1 µM
same,TGI,[59],64.4 µM
same,TGI,[48],> 100 µM
same,TGI,[50],> 100 µM
same,TGI,[51],> 100 µM
same,TGI,[52],> 100 µM
same,TGI,[53],91.3 µM
same,TGI,[54],64 µM
